According to patent US10961202B2, “Bis-benzimidazole compounds and methods of using the same” (THE SCRIPPS RESEARCH INSTITUTE, priority 2017, dated 2021):

Test system: r(CUG)12-MBNL1 complex
Assay: Inhibition of the r(CUG)12-MBNL1 complex measured by TR-FRET
Type: biochemical
Settings: Table M; 80 nM RNA, 60 nM MBNL1-His6

Compound	IC50 [µM]
N#Cc1cccc(Oc2ccc3nc(-c4ccc(-c5nc6ccc(Oc7cccc(C#N)c7)cc6[nH]5)cc4)[nH]c3c2)c1 [Compound 230, 3,3′-((2,2′-(1,4-phenylene)bis(1H-benzo[d]imidazole-6,2-diyl))bis(oxy))dibenzonitrile]	> 200
CN(C)CCCOc1ccc2nc(-c3ccc(-c4nc5ccc(C(=O)NCCN6CCCC6)cc5[nH]4)cc3)[nH]c2c1 [Compound 232, 2-(4-(6-(3-(dimethylamino)propoxy)-1H-benzo[d]imidazol-2-yl)phenyl)-N-(2-(pyrrolidin-1-yl)ethyl)-1H-benzo[d]imidazole-6-carboxamide]	25
CN(C)C/C=C/COc1ccc2nc(-c3ccc(-c4nc5ccc(OC/C=C/CN(C)C)cc5[nH]4)cc3)[nH]c2c1 [Compound 233, (2E,2′E)-4,4′-((2,2′-(1,4-phenylene)bis(1H-benzo[d]imidazole-6,2-diyl))bis(oxy))bis(N,N-dimethylbut-2-en-1-amine)]	39.5
NCc1cccc(Oc2ccc3nc(-c4ccc(-c5nc6ccc(Oc7cccc(CN)c7)cc6[nH]5)cc4)[nH]c3c2)c1 [Compound 234, (((2,2′-(1,4-phenylene)bis(1H-benzo[d]imidazole-6,2-diyl))bis(oxy))bis(3,1-phenylene))dimethanamine]	39.8
CN(C)CCCOc1ccc2nc(-c3ccc(-c4nc5ccc(OCCCN=[N+]=[N-])cc5[nH]4)cc3)[nH]c2c1 [Compound 235, 3-((2-(4-(6-(3-azidopropoxy)-1H-benzo[d]imidazol-2-yl)phenyl)-1H-benzo[d]imidazol-6-yl)oxy)-N,N-dimethylpropan-1-amine]	78.2
NCc1ccc(Oc2ccc3nc(-c4ccc(-c5nc6ccc(Oc7ccc(CN)cc7)cc6[nH]5)cc4)[nH]c3c2)cc1 [Compound 236, (((2,2′-(1,4-phenylene)bis(1H-benzo[d]imidazole-6,2-diyl))bis(oxy))bis(4,1-phenylene))dimethanamine]	62.1
CN(C)CCCOc1ccc2nc(-c3ccc(-c4nc5ccc(C(=O)NCCN6CCCCC6)cc5[nH]4)cc3)[nH]c2c1 [Compound 237, 2-(4-(6-(3-(dimethylamino)propoxy)-1H-benzo[d]imidazol-2-yl)phenyl)-N-(2-(piperidin-1-yl)ethyl)-1H-benzo[d]imidazole-6-carboxamide]	26
CN(C)CCCOc1ccc2nc(-c3ccc(-c4nc5ccc(C(=O)NCCN(C)C)cc5[nH]4)cc3)[nH]c2c1 [Compound 238]	10
CN(C)CCCNC(=O)c1ccc2nc(-c3ccc(-c4nc5ccc(OCCCN(C)C)cc5[nH]4)cc3)[nH]c2c1 [Compound 239]	24.8
CN(C)CCCOc1ccc2nc(-c3ccc(-c4nc5ccc(OCCCC(F)(F)F)cc5[nH]4)cc3)[nH]c2c1 [Compound 240, N,N-dimethyl-3-((2-(4-(6-(4,4,4-trifluorobutoxy)-1H-benzo[d]imidazol-2-yl)phenyl)-1H-benzo[d]imidazol-6-yl)oxy)propan-1-amine]	71.5
CN(C)CCCOc1ccc2nc(-c3ccc(-c4nc5ccc(OCCCC#N)cc5[nH]4)cc3)[nH]c2c1 [Compound 241, 4-((2-(4-(6-(3-(dimethylamino)propoxy)-1H-benzo[d]imidazol-2-yl)phenyl)-1H-benzo[d]imidazol-6-yl)oxy)butanenitrile]	64.7
CN(C)Cc1ccc(Oc2ccc3nc(-c4ccc(-c5nc6ccc(Oc7ccc(CN(C)C)cc7)cc6[nH]5)cc4)[nH]c3c2)cc1 [Compound 242]	47.7
CN(C)Cc1cccc(Oc2ccc3nc(-c4ccc(-c5nc6ccc(Oc7cccc(CN(C)C)c7)cc6[nH]5)cc4)[nH]c3c2)c1 [Compound 243]	> 200
CN(C)C/C=C\COc1ccc2nc(-c3ccc(-c4nc5ccc(OC/C=C\CN(C)C)cc5[nH]4)cc3)[nH]c2c1 [Compound 244, (2Z,2′Z)-4,4′-((2,2′-(1,4-phenylene)bis(1H-benzo[d]imidazole-6,2-diyl))bis(oxy))bis(N,N-dimethylbut-2-en-1-amine)]	23.5
COc1ccc2nc(-c3ccc(-c4nc5ccc(OCCCN(C)C)cc5[nH]4)cc3)[nH]c2c1 [Compound 245, 3-((2-(4-(6-methoxy-1H-benzo[d]imidazol-2-yl)phenyl)-1H-benzo[d]imidazol-6-yl)oxy)-N,N-dimethylpropan-1-amine]	83.8
CN(C)CCCOc1ccc2nc(-c3ccc(-c4nc5ccccc5[nH]4)cc3)[nH]c2c1 [Compound 246]	> 200
CN(C)Cc1cn(-c2ccc3nc(-c4ccc(-c5nc6ccc(-n7cc(CN(C)C)nn7)cc6[nH]5)cc4)[nH]c3c2)nn1 [Compound 247]	6.8
CN(C)CCCOc1ccc2nc(-c3ccc(-c4nc5ccc(OCCCC(=O)O)cc5[nH]4)cc3)[nH]c2c1 [Compound 248, 4-((2-(4-(5-(3-(dimethylamino)propoxy)-1H-benzo[d]imidazol-2-yl)phenyl)-1H-benzo[d]imidazol-5-yl)oxy)butanoic acid]	> 200
CN(C)CCCOc1ccc2nc(-c3ccc(-c4nc5ccc(O)cc5[nH]4)cc3)[nH]c2c1 [Compound 249]	52.6
CN(C)CCCOc1ccc2nc(-c3ccc(-c4nc5ccc(C(=O)O)cc5[nH]4)cc3)[nH]c2c1 [Compound 250, 2-(4-(6-(3-(dimethylamino)propoxy)-1H-benzo[d]imidazol-2-yl)phenyl)-1H-benzo[d]imidazole-6-carboxylic acid]	> 200

Compound	IC50 [µM]
CN(C)CCn1cc(-c2ccc3nc(-c4ccc(-c5nc6ccc(-c7cn(CCN(C)C)nn7)cc6[nH]5)cc4)[nH]c3c2)nn1 [Compound 251, 2,2′-(4,4′-(2,2′-(1,4-phenylene)bis(1H-benzo[d]imidazole-6,2-diyl))bis(1H-1,2,3-triazole-4,1-diyl))bis(N,N-dimethylethanamine)]	112
CN(C)CCCOc1ccc2nc(-c3cccc(-c4nc5ccc(OCCCN(C)C)cc5[nH]4)c3)[nH]c2c1 [Compound 253, 3,3′-((1,3-phenylenebis(1H-benzo[d]imidazole-2,6-diyl))bis(oxy))bis(N,N-dimethylpropan-1-amine)]	> 200
CN(C)CCCOc1ccc2nc(-c3ccc(-c4nc5ccc(C(=O)OC(C)(C)C)cc5[nH]4)cc3)[nH]c2c1 [Compound 254, tert-butyl 2-(4-(6-(3-(dimethylamino)propoxy)-1H-benzo[d]imidazol-2-yl)phenyl)-1H-benzo[d]imidazole-6-carboxylate]	> 200
COCCOCCOc1cc(-c2nc3ccc(OCCCN(C)C)cc3[nH]2)ccc1-c1nc2ccc(OCCCN(C)C)cc2[nH]1 [Compound 260]	37.5
OCCOc1cc(-c2nc3ccc(O)cc3[nH]2)ccc1-c1nc2ccc(O)cc2[nH]1 [Compound 261]	74.1
COCCOc1cc(-c2nc3cc(OCCCN(C)C)ccc3[nH]2)c(OC)cc1-c1nc2ccc(OCCCN(C)C)cc2[nH]1 [Compound 262, 3-((2-(4-(6-(3-(dimethylamino)propoxy)-1H-benzo[d]imidazol-2-yl)-2-methoxy-5-(2-methoxyethoxy)phenyl)-1H-benzo[d]imidazol-5-yl)oxy)-N,N-dimethylpropan-1-amine]	55.5
CN(C)CCCOc1ccc2nc(-c3ccc(-c4nc5ccc(OCCCN(C)C)cc5[nH]4)c(OCCN(C)C)c3)[nH]c2c1 [Compound 263, 3,3′-((2,2′-(2-(2-(dimethylamino)ethoxy)-1,4-phenylene)bis(1H-benzo[d]imidazole-6,2-diyl))bis(oxy))bis(N,N-dimethylpropan-1-amine)]	45.6
Cc1cc(-c2nc3ccc(OCCCN(C)C)cc3[nH]2)c(C)cc1-c1nc2ccc(OCCCN(C)C)cc2[nH]1 [Compound 271, (3-[[2-(4-[6-[3-(dimethylamino)propoxy]-1H-1,3-benzodiazol-2-yl]-2,5-dimethylphenyl)-1H-1,3-benzodiazol-6-yl]oxy]propyl)dimethylamine]	> 200
Cc1cc(-c2nc3ccc(OCCCN(C)C)cc3[nH]2)ccc1-c1nc2ccc(OCCCN(C)C)cc2[nH]1 [Compound 272]	95.2
CN(C)CCCOc1ccc2nc(-c3ccc(-c4nc5ccc(OCCCN(C)C)c(F)c5[nH]4)cc3)[nH]c2c1F [Compound 280]	31.3
FC(F)(F)CCCOc1ccc2nc(-c3ccc(-c4nc5ccc(OCCCC(F)(F)F)cc5[nH]4)cc3)[nH]c2c1 [Compound 281]	> 200
CN(C)C(C)(C)CCOc1ccc2nc(-c3ccc(-c4nc5ccc(OCCC(C)(C)N(C)C)cc5[nH]4)cc3)[nH]c2c1 [Compound 282, 4,4′-((1,4-phenylenebis(1H-benzo[d]imidazole-2,6-diyl))bis(oxy))bis(N,N,2-trimethylbutan-2-amine)]	179
CN(C)CCNC(=O)COc1ccc2nc(-c3ccc(-c4nc5ccc(OCC(=O)NCCN(C)C)cc5[nH]4)cc3)[nH]c2c1 [Compound 284, 2,2′-((1,4-phenylenebis(1H-benzo[d]imidazole-2,6-diyl))bis(oxy))bis(N-(2-(dimethylamino)ethyl)acetamide)]	24.1
CN(C)CCNC(=O)CSc1ccc2nc(-c3ccc(-c4nc5ccc(SCC(=O)NCCN(C)C)cc5[nH]4)cc3)[nH]c2c1 [Compound 285, N-[2-(dimethylamino)ethyl]-2-[[2-(4-[6-[([[2-(dimethylamino)ethyl]carbamoyl]methyl)sulfanyl]-1H-1,3-benzodiazol-2-yl]phenyl)-1H-1,3-benzodiazol-6-yl]sulfanyl]acetamide]	> 200
CN(C)CCCOc1cc(F)cc2nc(-c3ccc(-c4nc5cc(F)cc(OCCCN(C)C)c5[nH]4)cc3)[nH]c12 [Compound 287]	8.6
CN(C)CCCOc1ccc2nc(-c3ccc(-c4nc5ccc(OCCCN(C)C)cc5[nH]4)c([N+](=O)[O-])c3)[nH]c2c1 [Compound 288, 3,3′-(((2-nitro-1,4-phenylene)bis(1H-benzo[d]imidazole-2,6-diyl))bis(oxy))bis(N,N-dimethylpropan-1-amine)]	42.6
N#CCCCOc1ccc2nc(-c3ccc(-c4nc5ccc(OCCCC#N)cc5[nH]4)cc3)[nH]c2c1 [Compound 289]	> 200
CN(C)CCCOc1ccc2nc(-c3ccc(-c4nc5ccc(OCCCN(C)C)cc5[nH]4)c(N)c3)[nH]c2c1 [Compound 291, 3,3′-(((2-amino-1,4-phenylene)bis(1H-benzo[d]imidazole-2,6-diyl))bis(oxy))bis(N,N-dimethylpropan-1-amine)]	61.5
CN(C)CCCOc1ccc2nc(-c3ccc(-c4nc5ccc(OCCCN(C)C)cc5[nH]4)nn3)[nH]c2c1 [Compound 292]	14
